Measurements reported in PubChem BioAssay AID1259408 (Genetic Toxicology Data Bank (GENE-TOX), 2018).
Activity calls are given as the source filed them. How the calls were made is not given here.

Test system: GENE-TOX genotoxicity assays, various organisms and cells
Assay: GENE-TOX mutagenicity studies
Conditions: for call: Assay Type: In vivo carcinogenicity studies
[1] = Species/Cell Type: Mammalian polychromatic erythrocytes, Assay Type: Micronucleus test, chromosome aberrations, Assay Code: MNT+, Evaluation Type: Evaluation A (Pre-1980)
[2] = Species/Cell Type: Mouse, Sex: Male, Assay Type: Sperm morphology, Assay Code: SPI+, Evaluation Type: Evaluation A (Pre-1980)
[3] = Species/Cell Type: Nonhuman, Assay Code: CCG+, Evaluation Type: Evaluation A (Pre-1980)
[4] = Species/Cell Type: Nonhuman, Assay Type: Sister-chromatid exchange (SCE) in vitro, Assay Code: SC2+D, Dose Response: With dose response, Evaluation Type: Evaluation B (Post-1980)
[5] = Species/Cell Type: Salmonella typhimurium (one or more of the five standard strains: TA98, TA100, TA1535, TA1537, and TA1538), Assay Type: Histidine reverse gene mutation, Ames assay, Assay Code: SAL+*, Activation: With metabolic activation, Evaluation Type: Evaluation A (Pre-1980)
[6] = Species/Cell Type: Nonhuman bone marrow, Assay Type: Chromosome aberrations, in vivo, Assay Code: CY#+, Evaluation Type: Evaluation A (Pre-1980)

For `c1ccccc1`, the mutagenic call (Species/Cell Type: Human lymphocytes or leukocytes, Assay Type: Chromosome aberrations in vitro, Assay Code: CY7+, Evaluation Type: Evaluation A (Pre-1980)) was “active; positive”, the mutagenic call (Species/Cell Type: Human lymphocytes or leukocytes, Assay Type: Chromosome aberrations in vivo, Assay Code: CY8+, Evaluation Type: Evaluation A (Pre-1980)) was “active; positive” and the mutagenic call (Species/Cell Type: Human lymphocytes, Assay Type: Sister-chromatid exchange (SCE) in vitro, Assay Code: SCL+*, Activation: With metabolic activation, Evaluation Type: Evaluation B (Post-1980)) was “active; positive”. The mutagenic call (Species/Cell Type: Human lymphocytes, Assay Type: Sister-chromatid exchange (SCE) in vitro, Assay Code: SCL-, Evaluation Type: Evaluation A (Pre-1980)) was “inactive; negative”, the mutagenic call (Species/Cell Type: Human lymphocytes, Assay Type: Sister-chromatid exchange (SCE) in vivo, Assay Code: SCY+, Evaluation Type: Evaluation B (Post-1980)) was “active; positive” and the mutagenic call (Species/Cell Type: Human, Assay Type: Sister-chromatid exchange (SCE) in vitro, Assay Code: SC1+*, Activation: With metabolic activation, Evaluation Type: Evaluation B (Post-1980)) was “active; positive”. For the same compound, the mutagenic call (Species/Cell Type: Human, Assay Type: Sister-chromatid exchange (SCE) in vitro, Assay Code: SC1-, Evaluation Type: Evaluation A (Pre-1980)) was “inactive; negative”, the mutagenic call [1] was “active; positive” and the mutagenic call [2] was “active; positive”. For the same compound, the call [3] was “active; positive”, the mutagenic call [4] was “active; positive” and the mutagenic call (Species/Cell Type: Nonhuman, Assay Type: Sister-chromatid exchange (SCE) in vivo, Assay Code: SC3+D, Dose Response: With dose response, Evaluation Type: Evaluation B (Post-1980)) was “active; positive”. The mutagenic call (Species/Cell Type: Syrian hamster embryo (SA7/SHE) cells, Assay Type: Cell transformation, viral enhanced, Assay Code: CT7-, Evaluation Type: Evaluation A (Pre-1980)) was “inactive; negative” and the mutagenic call (Species/Cell Type: Tradescantia species, Assay Type: Gene mutation, Assay Code: TRM+D, Dose Response: With dose response, Evaluation Type: Evaluation A (Pre-1980)) was “active; positive”.
For `COP(=O)(Oc1cc(Cl)c(Br)cc1Cl)c1ccccc1` (configuration not stated), the mutagenic call [4] was “active; positive”.
For `O=P([O-])([O-])[O-].O=P([O-])([O-])[O-].[Pb+2].[Pb+2].[Pb+2]`, the call [3] was “active; positive”.
For `c1ccc2c3c(ccc2c1)Cc1c(ccc2ccccc12)C3`, the mutagenic call [5] was “active; positive”.
`CC1CN1P(=O)(N1CC1C)N1CC1C` (configuration not stated) was tested, and the mutagenic call (Species/Cell Type: Drosophila melanogaster, Assay Type: Sex-linked recessive lethal gene mutation, Assay Code: SRL+, Evaluation Type: Evaluation A (Pre-1980)) was “active; positive”, the mutagenic call (Species/Cell Type: F1 mouse, Sex: Male, Assay Type: Sperm morphology, Assay Code: SPFT, Evaluation Type: Evaluation A (Pre-1980)) was “no conclusion” and the mutagenic call (Species/Cell Type: Hordeum vulgare (barley), Assay Type: Chromosome aberrations, Assay Code: HOC+, Evaluation Type: Evaluation A (Pre-1980)) was “active; positive”. For the same compound, the mutagenic call [1] was “active; positive”, the mutagenic call [2] was “active; positive” and the mutagenic call (Species/Cell Type: Neurospora crassa, Assay Type: Forward gene mutation, Assay Code: NEF+, Evaluation Type: Evaluation A (Pre-1980)) was “active; positive”. The mutagenic call [6] was “active; positive”, the call (Species/Cell Type: Nonhuman, Assay Code: CCGT, Evaluation Type: Evaluation A (Pre-1980)) was “no conclusion” and the mutagenic call (Species/Cell Type: Rodents, Sex: Male, Assay Type: Dominant lethal test, Assay Code: DLT+, Evaluation Type: Evaluation A (Pre-1980)) was “active; positive”. The mutagenic call (Species/Cell Type: Vicia faba, Assay Type: Chromosome aberrations, Assay Code: VIC+D, Dose Response: With dose response, Evaluation Type: Evaluation A (Pre-1980)) was “active; positive”.
`CC(=O)Nc1ccc(-c2ccc(NO)cc2)cc1` was tested, and the mutagenic call (Species/Cell Type: Chinese hamster ovary (CHO) cells, Assay Type: Forward gene mutation at the HPRT locus, Assay Code: CHO+, Evaluation Type: Evaluation B (Post-1980)) was “active; positive”.
With `Cc1cc2c(C)c3ccccc3c(C)c2c2ccccc12` the mutagenic call (Species/Cell Type: Chinese hamster lung (V79) cells, Assay Type: Forward gene mutation at the HPRT or ouabain locus, Assay Code: V79-*, Activation: With metabolic activation, Evaluation Type: Evaluation A (Pre-1980)) was “inactive; negative”.
`CCNP(=O)(N1CC1)N1CC1` was tested, and the mutagenic call [6] was “active; positive”, the mutagenic call (Species/Cell Type: Nonhuman, Assay Type: Chromosome aberrations in vitro, Assay Code: CY&+, Evaluation Type: Evaluation A (Pre-1980)) was “active; positive” and the mutagenic call (Species/Cell Type: Schizosaccharomyces pombe, Assay Type: Reverse gene mutation, Assay Code: YEZ+, Evaluation Type: Evaluation A (Pre-1980)) was “active; positive”.
For `O=[As]O`, the mutagenic call (Species/Cell Type: Bacillus subtilis (H17 vs M45), Assay Type: Rec-assay, spot test, DNA effects (bacterial DNA repair), Assay Code: REW+, Evaluation Type: Evaluation A (Pre-1980)) was “active; positive”, the mutagenic call (Species/Cell Type: Chinese hamster ovary (CHO) cells, Assay Type: Forward gene mutation at the HPRT locus, Assay Code: CHOT, Evaluation Type: Evaluation B (Post-1980)) was “no conclusion” and the mutagenic call (Species/Cell Type: Human lymphocytes, Assay Type: Sister-chromatid exchange (SCE) in vitro, Assay Code: SCL+D*, Activation: With metabolic activation, Dose Response: With dose response, Evaluation Type: Evaluation B (Post-1980)) was “active; positive”. The mutagenic call (Species/Cell Type: Human, Assay Type: Sister-chromatid exchange (SCE) in vitro, Assay Code: SC1+D*, Activation: With metabolic activation, Dose Response: With dose response, Evaluation Type: Evaluation B (Post-1980)) was “active; positive”, the mutagenic call (Species/Cell Type: Mammalian polychromatic erythrocytes, Assay Type: Micronucleus test, chromosome aberrations, Assay Code: MNT+, Evaluation Type: Evaluation B (Post-1980)) was “active; positive” and the mutagenic call (Species/Cell Type: Nonhuman, Assay Type: Sister-chromatid exchange (SCE) in vitro, Assay Code: SC2+, Evaluation Type: Evaluation B (Post-1980)) was “active; positive”. For the same compound, the mutagenic call (Species/Cell Type: Syrian hamster embryo (SA7/SHE) cells, Assay Type: Cell transformation, viral enhanced, Assay Code: CT7+, Evaluation Type: Evaluation A (Pre-1980)) was “active; positive”.
For `CC(COc1ccccc1)N(CCCl)Cc1ccccc1` (configuration not stated), the call [3] was “active; positive”.
In the case of `OCCS`, the mutagenic call [4] is reported as “active; positive”.
In the case of `Cc1ccc2ccccc2n1`, the mutagenic call [5] is reported as “active; positive”.
